Measurements from patent US20100317709A1, “SPHINGOSINE-1-PHOSPHATE (S1P) RECEPTOR COMPOUNDS” (UNIVERSITEIT LEIDEN, priority 2007, published 2010).

Key:
S1P3 receptor = S1P3 receptor (Homo sapiens, UniProt Q99500); experiment: cAMP accumulation assay at the S1P3 receptor (Lance cAMP 384 kit); type: cell-based; settings: for EC50: N.D. = not defined because the potency and/or the efficacy were too low, read-out: pEC50 S1P3 (converted); for efficacy (α) S1P3: S1P = 1.00, N.D. = not defined because the potency and/or the efficacy were too low
Sequence of S1P3 receptor (Q99500 whole entry): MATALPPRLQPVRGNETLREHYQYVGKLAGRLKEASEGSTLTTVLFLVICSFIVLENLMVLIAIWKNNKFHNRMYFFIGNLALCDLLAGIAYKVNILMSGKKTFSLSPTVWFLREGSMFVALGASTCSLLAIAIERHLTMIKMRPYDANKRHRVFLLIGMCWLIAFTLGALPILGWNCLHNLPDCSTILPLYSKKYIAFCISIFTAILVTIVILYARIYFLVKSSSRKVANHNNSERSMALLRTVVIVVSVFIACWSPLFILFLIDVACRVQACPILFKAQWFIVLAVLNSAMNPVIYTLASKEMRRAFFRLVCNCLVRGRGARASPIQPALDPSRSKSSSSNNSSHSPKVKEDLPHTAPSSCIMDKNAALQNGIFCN
From the text: (§1) A primary function of certain cell surface receptors is to activate second messenger systems upon binding of an agonist. The S1P1 receptor selectively binds to and activates Gi-proteins and activation of this receptor subtype thus results in the inhibition of cAMP production. The S1P2 receptor predominantly activates Gq-proteins finally resulting in increases in intracellular calcium. S1P3 receptor activation results in both, an inhibition of cAMP production and an increase in intracellular calcium, via the activation of Gi- and Gq-proteins
(§2) Accordingly, we performed measurements on cAMP accumulation (Lance cAMP 384 kit, Perkin Elmer, Zaventem, Belgium) and measurements on changes in intracellular calcium (for method see Jongsma et al., 2006) (8).

S1P1 receptor = S1P1 receptor (Homo sapiens, UniProt P21453); experiment: cAMP accumulation assay at the S1P1 receptor (Lance cAMP 384 kit); type: cell-based; settings: for EC50: N.D. = not defined because the potency and/or the efficacy were too low, read-out: pEC50 S1P1 (converted); for efficacy (α) S1P1: S1P = 1.00, N.D. = not defined because the potency and/or the efficacy were too low
Sequence of S1P1 receptor (P21453 whole entry): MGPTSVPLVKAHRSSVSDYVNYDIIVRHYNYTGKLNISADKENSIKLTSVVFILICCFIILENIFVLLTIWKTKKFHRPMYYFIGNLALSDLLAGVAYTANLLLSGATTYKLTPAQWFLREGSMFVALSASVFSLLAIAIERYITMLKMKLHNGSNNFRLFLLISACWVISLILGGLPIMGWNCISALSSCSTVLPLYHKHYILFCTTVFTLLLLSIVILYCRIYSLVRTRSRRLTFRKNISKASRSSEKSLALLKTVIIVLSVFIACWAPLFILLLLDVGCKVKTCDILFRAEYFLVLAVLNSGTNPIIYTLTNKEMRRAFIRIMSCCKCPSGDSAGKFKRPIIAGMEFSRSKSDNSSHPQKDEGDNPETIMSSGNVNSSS
From the text: as §1, §2

melting point [°C] | EC50 (S1P3 receptor) [nM] | efficacy (α) S1P3 (S1P3 receptor) | EC50 (S1P1 receptor) [nM] | efficacy (α) S1P1 (S1P1 receptor) | SMILES
160 to 162 | 1260 | 0.94 | 1380 | 0.46 | Nc1sc2c(c1C(=O)c1cccc(I)c1)CCCC2 [LUF5533, (2-Amino-4,5,6,7-tetrahydrobenzo[b]thiophen-3-yl)(3-iodophenyl)methanone]
123 to 125 |  |  |  |  | Cc1sc(N)c(C(=O)c2ccc(Cl)cc2)c1C [LUF5487, (2-Amino-4,5-dimethyl-3-thienyl)(4-chlorophenyl)methanone]
150 to 152 | > 10000 | <0.5 (n = 2) |  |  | Nc1sc2c(c1C(=O)c1ccc(I)cc1)CCCC2 [LUF5528, (2-Amino-4,5,6,7-tetrahydrobenzo[b]thiophen-3-yl)(4-iodophenyl)methanone]
99 to 102 |  |  |  |  | CCc1c(C)sc(N)c1C(=O)c1cccc(Cl)c1 [LUF5472, (2-Amino-4-ethyl-5-methyl-3-thienyl)(3-chlorophenyl)methanone]
100 to 101 |  |  |  |  | CCc1c(C)sc(N)c1C(=O)c1cccc(C(F)(F)F)c1 [LUF5468, (2-Amino-4-ethyl-5-methyl-3-thienyl)[3-(trifluoromethyl)phenyl]methanone]
145 to 147 | 4170 | 0.71 | 4170 | 0.63 | Nc1sc2c(c1C(=O)c1ccccc1Cl)CCCC2 [LUF5532, (2-Amino-4,5,6,7-tetrahydrobenzo[b]thiophen-3-yl)(2-chlorophenyl)methanone]
129 to 131 | > 10000 | +/−1 (n = 3) |  |  | CCc1c(C)sc(N)c1C(=O)c1ccccc1 [LUF5464, (2-Amino-4-ethyl-5-methyl-3-thienyl)(phenyl)methanone]
114 to 115 | 1860 | 1.07 | 1000 | 0.40 | Nc1sc2c(c1C(=O)c1cccc(Cl)c1)CCCC2 [LUF5473, (2-Amino-4,5,6,7-tetrahydrobenzo[b]thiophen-3-yl)(3-chlorophenyl)methanone]
 | > 10000 | >0.5 |  |  | Nc1sc2c(c1C(=O)c1ccccc1)CCCC2 [LUF5465, (2-Amino-4,5,6,7-tetrahydrobenzo[b]thiophen-3-yl)(phenyl)methanone]

Continued, molecule first:

SMILES | melting point [°C] | EC50 (S1P3 receptor) [nM] | efficacy (α) S1P3 (S1P3 receptor) | EC50 (S1P1 receptor) [nM] | efficacy (α) S1P1 (S1P1 receptor)
Nc1sc(-c2ccccc2)cc1C(=O)c1ccc(Cl)cc1 [LUF5488, (2-Amino-5-phenyl-3-thienyl)(4-chlorophenyl)methanone] | 173 to 175 |  |  |  | 
Cc1ccc(C(=O)c2c(N)sc3c2CCCC3)cc1 [LUF5527, (2-Amino-4,5,6,7-tetrahydrobenzo[b]thiophen-3-yl)(4-methylphenyl)methanone] | 155 to 156 | 3090 | 0.96 |  | 
Nc1sc2c(c1C(=O)c1cccc(C(F)(F)F)c1)CCCC2 [LUF5469, (2-Amino-4,5,6,7-tetrahydrobenzo[b]thiophen-3-yl)[3-(trifluoromethyl)phenyl]methanone] | 122 to 123 | 1290 | 1.07 |  | 
Nc1sc2c(c1C(=O)c1ccc(Br)cc1)CCCC2 [LUF5490, (2-Amino-4,5,6,7-tetrahydrobenzo[b]thiophen-3-yl)(4-bromophenyl)methanone] | 152 to 153 | 1150 | 0.41 |  | 
CCCCCCCCCCCCC/C=C/[C@@H](O)[C@@H](N)COP(=O)(O)O [S1P, sphingosine-1-phosphate] |  | 0.347 | 1.00 | 0.138 | 1.00
Nc1sc2c(c1C(=O)c1ccc([N+](=O)[O-])cc1)CCCC2 [LUF5526, (2-Amino-4,5,6,7-tetrahydrobenzo[b]thiophen-3-yl)(4-nitrophenyl)methanone] | 202 to 204 |  |  |  | 
Nc1sc2c(c1C(=O)c1ccc(C(=O)O)cc1)CCCC2 [LUF5493, 4-[(2-Amino-4,5,6,7-tetrahydrobenzo[b]thiophen-3-yl)-carbonyl]benzoic acid] | 232 to 233 |  |  |  | 
Nc1sc2c(c1C(=O)c1ccc(C(F)(F)F)cc1)CCCC2 [LUF5489, (2-Amino-4,5,6,7-tetrahydrobenzo[b]thiophen-3-yl)[4-(trifluoromethyl)phenyl]methanone] | 145 to 147 | > 10000 |  |  | 
Cc1sc(N)c(C(=O)c2cccc(Cl)c2)c1C [LUF5471, (2-Amino-4,5-dimethyl-3-thienyl)(3-chlorophenyl)methanone] | 114 to 116 |  |  |  | 
COC(=O)c1ccc(C(=O)c2c(N)sc3c2CCCC3)cc1 [LUF5492, Methyl 4[(2-Amino-4,5,6,7-tetrahydrobenzo[b]thiophen-3-yl)-carbonyl]benzoate] | 159 to 160 | 933 | 0.25 |  | 
Nc1sc(CN2C(=O)c3ccccc3C2=O)cc1C(=O)c1cccc(C(F)(F)F)c1 [LUF5496, 2-({5-Amino-4-[3-(trifluoromethyl)benzoyl]-2-thienyl}methyl)-1,3-isoindolinedione] | 199 to 200 | > 10000 |  |  | 
Nc1sc2c(c1C(=O)c1ccc(Cl)c(Cl)c1)CCCC2 [LUF5484, (2-Amino-4,5,6,7-tetrahydrobenzo[b]thiophen-3-yl)(3,4-dichlorophenyl)methanone] | 152 to 154 | > 10000 | <0.5 (n = 2) |  | 
Nc1sc2c(c1C(=O)c1ccc(Cl)cc1)CCCC2 [LUF5480, (2-Amino-4,5,6,7-tetrahydrobenzo[b]thiophen-3-yl)(4-chlorophenyl)methanone] |  | 6760 | 0.37 |  | 
CCc1c(C)sc(N)c1C(=O)c1ccc(Cl)cc1 [LUF5482, (2-Amino-4-ethyl-5-methyl-3-thienyl)(4-chlorophenyl)methanone] | 108 to 110 |  |  |  | 
